Patent publication US20110178072A1, “STEREOSPECIFICITY OF METHYLSULFINYL REDUCTION” (priority 2008, published 2011)

Assays:
mouse MsrA = biological target: T1, mouse MsrA (Mus musculus, UniProt Q9D6Y7); assay: Reduction of methylsulfinyl compounds by mouse MsrA (HPLC/GC analysis); assay type: biochemical
T1 sequence (Q9D6Y7 21-233): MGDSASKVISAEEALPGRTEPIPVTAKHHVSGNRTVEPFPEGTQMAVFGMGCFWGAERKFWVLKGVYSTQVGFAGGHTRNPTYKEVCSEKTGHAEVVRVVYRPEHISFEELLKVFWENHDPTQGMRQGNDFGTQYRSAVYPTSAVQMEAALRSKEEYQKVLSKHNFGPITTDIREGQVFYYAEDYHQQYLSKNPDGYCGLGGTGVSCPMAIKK
Method: (§1) The isothiocyanate group in R,S-sulforaphane reacts with sulfhydryls to form conjugated compounds. First, the compound was treated with excess DTT (which has two free sulfhydryl groups) to conjugate the isothiocyanate group of R,S-sulforaphane or S-sulforaphane with the sulfhydryl group of DTT and the resulting adducts were then used as substrates for mouse MsrA and mouse MsrB2. The reduction of the DTT-sulforaphane adduct was analyzed using HPLC analysis of the adduct with buffer (as control; FIG. 12A), mouse MsrB2 (FIG. 12B), and mouse MsrA (FIG. 12C). The arrows indicate the migration of the DTT-erucin adduct. […] FIG. 13 illustrates the HPLC analysis of the DTT-R-sulforaphane adduct incubated with buffer (as control) (FIG. 13A), mouse MsrA (FIG. 13B), and mouse MsrB2 (FIG. 13C). Again, the arrows show the migration of the DTT-erucin adduct.
(§2) Mesoridazine, which has a mild effect on treating schizophrenia, was examined to determine its reduction by yeast fRMsr, mouse MsrB2, and mouse MsrA (FIG. 14). The peak of m/z 387.6 corresponds to the molecular weight of mesoridazine and the peak of m/z 371.6 corresponds to the molecular weight of thioridazine. FIG. 14B details the HPLC analysis of mesoridazine incubated with mouse MsrB2 and DTT. FIG. 14C provides the HPLC analysis of mesoridazine incubated with yeast fRMsr and DTT. FIG. 14D illustrates the specific activities of various Msrs for the reduction of mesoridazine (left to right): mouse MsrA in the presence of DTT as a reductant, mouse MsrA in the presence of the thioredoxin reducing system, mouse MsrB2 in the presence of DTT, and yeast fRMsr in the presence of DTT.
(§3) The reduction of triclabendazole sulfoxide was examined. This compound has been used to treat liver fluke, Fasciola hepatica and Fasciola gigantica, in sheep, goat, and cattle as a form of triclabendazole. Triclabendazole can be metabolized to several different forms including triclabendazole sulfoxide, which is an oxidized form of methylsulfide group, in biological systems. FIG. 15A provides an HPLC analysis of triclabendazole sulfoxide incubated with mouse MsrA and DTT. The peak of m/z 375.2 and 377.2 correspond to the molecular weight of triclabendazole sulfoxide and the peak of m/z 359.2 and 361.2 correspond to the molecular weight of triclabendazole. FIG. 15B illustrates an HPLC analysis of triclabendazole sulfoxide incubated with mouse MsrB2 and DTT. FIG. 15C details an HPLC analysis of triclabendazole sulfoxide incubated with yeast fRMsr and DTT. FIG. 15D illustrates the specific activities of various Msrs for the reduction of triclabendazole sulfoxide (left to right): mouse MsrA in the presence of DTT as a reductant, mouse MsrA in the presence of the thioredoxin reducing system, mouse MsrB2 in the presence of DTT, and yeast fRMsr in the presence of DTT.
(§4) Another methylsulfinyl-containing drug, sulmazole, was tested as a substrate for Msrs. This drug is pharmacologically active as a cardiotonic agent and is a phosphodiesterase inhibitor. FIG. 16A details an HPLC analysis of sulmazole incubated with mouse MsrA and DTT. The peak of m/z 288.3 corresponds to the molecular weight of sulmazole and the peak of m/z 272.3 corresponds to the molecular weight of reduced form of sulmazole. FIG. 16B illustrates an HPLC analysis of sulmazole incubated with mouse MsrB2 and DTT. FIG. 16C provides an HPLC analysis of sulmazole incubated with yeast fRMsr and DTT. FIG. 16D details the specific activities of various Msrs for the reduction of sulmazole (left to right): mouse MsrA in the presence of DTT as a reductant, mouse MsrA in the presence of the thioredoxin reducing system, mouse MsrB2 in the presence of DTT, and yeast fRMsr in the presence of DTT.
DMSO, which is used as a preservative for stem cells, solvent for drugs, and a drug itself with anti-inflammatory and free radical scavenging properties, was studied for its reduction by Msrs. FIG. 17A details a GC analysis of DMSO incubated with mouse MsrA and DTT. […]

mouse MsrB2 = mouse MsrB2 (Mus musculus, UniProt Q78J03); assay: Reduction of methylsulfinyl compounds by mouse MsrB2 (HPLC/GC analysis); assay type: biochemical; details: in the presence of DTT
Method: as §1, §2, §3
as §4, with “FIG. 16D details the specific activities of various Msrs for the reduction of sulmazole (left to right): mouse MsrA in the presence of DTT as a reductant, mouse MsrA in the presence of the thioredoxin reducing system, mouse MsrB2 in the presence of DTT, and yeast fRMsr in the presence of DTT.” left out

yeast fRMsr = biological target: T2, yeast fRMsr (Saccharomyces cerevisiae, UniProt P36088); assay: Reduction of methylsulfinyl drugs by yeast fRMsr (HPLC analysis); assay type: biochemical; details: in the presence of DTT
T2 construct: His-tag (C); made in house; host or cells: E. coli BL21 (DE3), pET21b
T2 sequence (P36088 1-180): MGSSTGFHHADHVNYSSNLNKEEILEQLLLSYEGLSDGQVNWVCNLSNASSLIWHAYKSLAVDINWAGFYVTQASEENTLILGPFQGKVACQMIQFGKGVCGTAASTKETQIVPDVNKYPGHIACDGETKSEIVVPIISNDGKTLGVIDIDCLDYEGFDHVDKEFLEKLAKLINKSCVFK
Method: as §2
The reduction of triclabendazole sulfoxide was examined. This compound has been used to treat liver fluke, Fasciola hepatica and Fasciola gigantica, in sheep, goat, and cattle as a form of triclabendazole. Triclabendazole can be metabolized to several different forms including triclabendazole sulfoxide, which is an oxidized form of methylsulfide group, in biological systems. FIG. 15A provides an HPLC analysis of triclabendazole sulfoxide incubated with mouse MsrA and DTT. […]

mouse MsrB1-Cys = biological target: T3, mouse MsrB1-Cys (Mus musculus, UniProt Q9JLC3, U95C); assay: Reduction of DMSO by mouse MsrB1-Cys (GC analysis); assay type: biochemical; details: in the presence of DTT; selenocysteine replaced with cysteine
T3 sequence (Q9JLC3 1-116 U95C): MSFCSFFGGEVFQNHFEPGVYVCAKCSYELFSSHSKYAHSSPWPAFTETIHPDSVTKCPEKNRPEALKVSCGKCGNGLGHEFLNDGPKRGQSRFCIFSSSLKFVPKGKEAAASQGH
Method: DMSO, which is used as a preservative for stem cells, solvent for drugs, and a drug itself with anti-inflammatory and free radical scavenging properties, was studied for its reduction by Msrs. FIG. 17A details a GC analysis of DMSO incubated with mouse MsrA and DTT. FIG. 17B provides a GC analysis of DMSO incubated with mouse MsrB2 and DTT. FIG. 17C illustrates a GC analysis of DMSO incubated with mouse MsrB1-Cys and DTT. FIG. 17D provides specific activities of various Msrs for the reduction of DMSO (left to right): mouse MsrA in the presence of DTT as a reductant, mouse MsrB2 in the presence of DTT, and mouse MsrB1-Cys in the presence of DTT.

SK-Hep1 cells = assay: Growth of SK-Hep1 cells in media supplemented or not with sodium selenite; assay type: cell-based, human; details: 100 nM; FBS-supplemented and insulin/transferrin media
Method: Growth of SK-Hep1 cells was analyzed in modified DMEM media containing Met, Met-SO, Met-RO, or Met-RSO (0.1 mM of each amino acid) or with no addition of these compounds. In addition, media were supplemented or not with 100 nM sodium selenite. Cells were analyzed at 0, 24, 48, and 72 hours. Another experiment involving SK-Hep1 cells was performed with cells grown in serum-free modified DMEM medium, containing insulin (5 μg/mL) and transferrin (10 μg/mL), Met or Met-RSO (0.1 mM of each amino acid) and 100 nM sodium selenite (or with no addition of this compound), and separately in 10% dialyzed FBS-containing DMEM medium containing 0.1 mM Met with 100 nM sodium selenite (or not). Cells were analyzed at 0, 24, 48, and 72 hours. Cell growth assays were carried out as described below.
Proliferation Assay—Cell growth was quantified using colorimetric MTS assay (Promega). Cells in regular DMEM medium were plated in 96-well plates at 5×10^3 cells/well, washed with PBS, and specialized DMEM media were added that contained Met, Met-SO, Met-RO, or Met-RSO 24 hours after plating. […] After 90 minutes of incubation at 37° C. in the atmosphere of 5% CO2, cell proliferation was measured at indicated time periods from 0 to 96 hours at 450 nm in a plate reader. […]

[1] = thioredoxin system as reductant

mouse MsrB2, sequence (Q78J03 43-175): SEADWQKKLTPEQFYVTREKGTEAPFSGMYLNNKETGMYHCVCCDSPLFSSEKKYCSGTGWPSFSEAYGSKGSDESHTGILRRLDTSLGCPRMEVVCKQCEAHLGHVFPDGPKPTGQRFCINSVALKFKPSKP

Compound	Reduction by mouse MsrA (mouse MsrA; DTT as a reductant)	Reduction by mouse MsrA (mouse MsrA; [1])	Reduction by mouse MsrB2 (mouse MsrB2)	Reduction by yeast fRMsr (yeast fRMsr)	Reduction by mouse MsrB1-Cys (mouse MsrB1-Cys)	Influence on cell growth on Met and Met sulfoxide (SK-Hep1 cells)
COc1cc([S+](C)[O-])ccc1-c1nc2ncccc2[nH]1 (stereo not drawn) [sulmazole, Sulmazole]	specifically reduced	specifically reduced	not reduced	not reduced	–	–
CN1CCCCC1CCN1c2ccccc2Sc2ccc([S+](C)[O-])cc21 (stereo not drawn) [Mesoridazine]	reduced to thioridazine	reduced to thioridazine	no activity was observed	no activity was observed	–	–
Dimethylsulfoxide [DMSO]	can be reduced	–	very inefficient substrate	–	very inefficient substrate	–
O=[Se]([O-])[O-].[Na+].[Na+] [sodium selenite]	–	–	–	–	–	did not influence cell growth
